Where two headings read alike, the source gives them in different places. Marks after values point to notes of the source that are not given here.
Key:
[1] = test system: Sudlow’s site II of human serum albumin (HSA); conditions: cited from earlier work
[2] = molecular target: Sudlow’s site I of human serum albumin (HSA) (Homo sapiens, UniProt P02768); assay type: binding; conditions: for warfarin concentration in the filtrate (displacement from site I): pH 7.4
[3] = molecular target: T1, human serum albumin (HSA) (Homo sapiens, UniProt P02768); conditions: cited from earlier work
T1 sequence (P02768 25-609): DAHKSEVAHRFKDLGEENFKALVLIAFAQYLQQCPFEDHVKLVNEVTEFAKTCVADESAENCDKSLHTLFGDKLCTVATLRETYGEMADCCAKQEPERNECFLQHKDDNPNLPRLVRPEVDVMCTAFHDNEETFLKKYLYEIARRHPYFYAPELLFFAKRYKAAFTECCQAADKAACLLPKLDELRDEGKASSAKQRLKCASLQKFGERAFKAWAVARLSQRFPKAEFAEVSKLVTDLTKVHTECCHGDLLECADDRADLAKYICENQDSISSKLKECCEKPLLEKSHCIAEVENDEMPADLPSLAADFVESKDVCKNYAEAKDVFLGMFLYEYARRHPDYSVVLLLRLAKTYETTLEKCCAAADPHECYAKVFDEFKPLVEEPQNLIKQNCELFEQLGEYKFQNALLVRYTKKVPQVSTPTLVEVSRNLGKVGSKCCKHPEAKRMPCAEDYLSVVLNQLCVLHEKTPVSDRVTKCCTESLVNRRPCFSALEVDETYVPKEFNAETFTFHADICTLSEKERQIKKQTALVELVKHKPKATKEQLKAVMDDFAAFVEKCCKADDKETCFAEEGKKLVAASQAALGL

[4] = molecular target: T1, human serum albumin (HSA); assay: biochemical; assay type: binding
[5] = molecular target: T1, human serum albumin (HSA); assay type: binding
[6] = molecular target: T1, human serum albumin (HSA); assay: biochemical; assay type: binding; remark: listed apart in the source
[7] = molecular target: T1, human serum albumin (HSA); assay type: binding; remark: listed apart in the source
bovine serum albumin = conditions: cited from earlier work
[8] = Ka (±SEM) (Hyperquad, Figure 3)
[9] = association constant of ochratoxin–HSA complex (approximate, summary)

Sequence of Sudlow’s site I of human serum albumin (HSA) (P02768 25-609): as above

For `O=c1cc(-c2ccccc2)oc2c(O)c(O)ccc12` [7,8-dihydroxyflavone], the “displacement of naproxen from HSA” value [1] is listed as “statistically significant displacement”.

With `CC1=C[C@H]2O[C@@H]3[C@H](O)C[C@](C)([C@@]2(CO)[C@H](O)C1=O)[C@]31CO1` [DON, Deoxynivalenol] the “effect of 10% FBS on the mycotoxin-induced viability loss / toxic effect” value (HepG2 cells) was “did not affect”, the “effect of 40 g/L HSA on the toxic effect of the mycotoxin” value (shortened to “effect of 40 g/L HSA”) (HepG2 cells) was “did not affect” and the “warfarin concentration in the filtrate (displacement from site I)” value (“warfarin concentration in the filtrate” below) [2] was “did not alter”. For the same compound, the “association constant of the complex with HSA” value [3] was roughly 46000 L/mol, the “quenching effect on HSA” value [3] was “strong quenching effect” and the “effect on the fluorescence emission of HSA” value [4] was “did not modify”. The “spectral position of the n–π* CD band in protein-free buffer vs. high molar excess of HSA” value ([5]; pH 7.4) was “practically the same”.

With `C[C@@H]1Cc2ccc(C(=O)N[C@@H](Cc3ccccc3)C(=O)O)c(O)c2C(=O)O1` [OTB, ochratoxin B] the “HSA concentration enough to achieve complete albumin binding” value [6] was 5 to 7 µM, the “emission signal of the ochratoxin with elevation of HSA concentration” value [6] was “significantly increased” and the Kd [6, 8] was 725 nM. The Kd [6, 9] was roughly 1000 nM, the “effect of 10% FBS on the mycotoxin-induced viability loss / toxic effect” value (HepG2 cells) was “significantly reduced” and the “effect of the mycotoxin on cellular ATP levels in the presence of 40 g/L HSA” value (HepG2 cells) was “did not affect”. For the same compound, the relative cytotoxicity (HepG2 cells) was “considerably lower toxicity than OTC”, the “location of the high-affinity binding site on HSA” value [2] was “subdomain IIA” and the “warfarin concentration in the filtrate” value [2] was “significantly increased”. The “fluorescence anisotropy in the presence of HSA” value [7] was “strongly increased”, the “effect on the emission signal of HSA at 340 nm” value [4] was “decreased” and the “KSV (±SEM) (Stern–Volmer Plot, Figure 2)” value ([4]; pH 7.4) was 0.57 ± 0.05 ×10^6 L/mol.

For `CCOC(=O)[C@H](Cc1ccccc1)NC(=O)c1cc(Cl)c2c(c1O)C(=O)O[C@H](C)C2` [OTC, ochratoxin C], the “HSA concentration enough to achieve complete albumin binding” value [6] was 2 to 3 µM, the “emission signal of the ochratoxin with elevation of HSA concentration” value [6] was “significantly increased” and the Kd [6, 8] was 62.4 nM. For the same compound, the Kd [6, 9] was roughly 100 nM, the “effect of 10% FBS on the mycotoxin-induced viability loss / toxic effect” value (HepG2 cells) was “abolished” and the “effect of the mycotoxin on cellular ATP levels in the presence of 40 g/L HSA” value (HepG2 cells) was “did not affect”. The “location of the high-affinity binding site on HSA” value [2] was “subdomain IIA”, the “warfarin concentration in the filtrate” value [2] was “significantly increased” and the “fluorescence anisotropy in the presence of HSA” value [7] was “strongly increased”. The “effect on the emission signal of HSA at 340 nm” value [4] was “decreased” and the “KSV (±SEM) (Stern–Volmer Plot, Figure 2)” value ([4]; pH 7.4) was 0.46 ± 0.06 ×10^6 L/mol.

With `O=C1C=C2C(=CCOC2O)O1` (centres unmarked) [PAT, Patulin] the “effect of 10% FBS on the mycotoxin-induced viability loss / toxic effect” value (HepG2 cells) was “did not affect”, the “effect of 40 g/L HSA” value (HepG2 cells) was “did not affect” and the “warfarin concentration in the filtrate” value [2] was “did not alter”. For the same compound, the “KSV of the complex with HSA” value [3] was 14000 L/mol, the “interaction with bovine serum albumin” value (bovine serum albumin) was “weak interaction” and the Kd [4] was 72.5 µM. The “effect on the fluorescence emission of HSA” value [4] was “slightly decreased”, the “KSV (Stern–Volmer quenching constant)” value ([4]; pH 7.4) was 8.23 × 10^3 (±1.12 × 10^3) L/mol and the “induced CD features on HSA binding” value [5] was “no induced CD features were observed”. For the same compound, the “UV spectral changes in the presence of HSA” value ([5]; pH 7.4) was “some UV spectral changes could be noticed”.

For `CC(=O)OC[C@]12C[C@H](OC(=O)CC(C)C)C(C)=C[C@H]1O[C@@H]1[C@H](O)[C@@H](OC(C)=O)[C@@]2(C)[C@]12CO2` [T2, T-2 toxin], the “effect of 10% FBS on the mycotoxin-induced viability loss / toxic effect” value (HepG2 cells) was “did not affect”, the “effect of 40 g/L HSA” value (HepG2 cells) was “did not affect” and the relative cytotoxicity (HepG2 cells) was “considerably higher compared to PAT or DON”. For the same compound, the “warfarin concentration in the filtrate” value [2] was “did not alter”, the “effect on the fluorescence emission of HSA” value [4] was “did not modify” and the “difference of far-UV CD curves of free HSA and HSA+toxin (secondary structure)” value [5] was “no significant difference”. The “modification of the near-UV CD spectrum of HSA (245–340 nm)” value [5] was “unambiguous and relevant spectral modifications could not be registered”.

For `Cc1cc(O)cc2oc(=O)c3c(O)cc(O)cc3c12` [alternariol, reference compound], the “Ka of the complex with HSA” value [3] is listed as 400000 L/mol.

For `O=c1cc(-c2ccccc2)oc2cc(OS(=O)(=O)O)cc(O)c12` [chrysin-7-sulfate], the “displacement of naproxen from HSA” value [1] is listed as “statistically significant displacement”.

For `O=c1cc(-c2ccccc2)oc2cc(O)cc(O)c12` [chrysin], the “displacement of naproxen from HSA” value [1] is given as “statistically significant displacement”.

For `CC1=C2C(=CO[C@H](C)[C@H]2C)C(O)=C(C(=O)O)C1=O` [citrinin, reference compound], the “Ka of the complex with HSA” value [3] is given as 200000 L/mol.

In the case of `C[C@H]1CCCC(=O)CCC/C=C/c2cc(O)cc(O)c2C(=O)O1` [zearalenone, reference compound], the “Ka of the complex with HSA” value [3] is listed as 120000 L/mol.
